Measurements: ChEMBL document CHEMBL3885881, “DrugMatrix”

Species on record: Rattus norvegicus
Experiment: DrugMatrix - Regimen: Daily Repeat
Assay type: toxicity, organism-based, Sprague-Dawley
Design: regimen Daily Repeat, gender Male, age 6-8 weeks
Conditions: in vivo, po, route oral GAVAGE; for POTASSIUM / SODIUM / TOTAL BILIRUBIN / TOTAL PROTEIN / URIC ACID / ALANINE AMINOTRANSFERASE / ALBUMIN / ALKALINE PHOSPHATASE / ASPARTATE AMINOTRANSFERASE / BLOOD UREA NITROGEN / CARBON DIOXIDE / CHLORIDE / CHOLESTEROL / CREATINE PHOSPHOKINASE / CREATININE / GLUCOSE / LACTATE DEHYDROGENASE / LIPASE / PHOSPHORUS: tissue Plasma; for ABSOLUTE EOSINOPHIL / ABSOLUTE LYMPHOCYTE / ABSOLUTE MONOCYTE / ABSOLUTE SEGMENTED NEUTROPHIL / EOSINOPHIL / ERYTHROCYTE COUNT / HEMATOCRIT / HEMOGLOBIN / LEUKOCYTE COUNT / LYMPHOCYTE / MEAN CORPUSCULAR HEMOGLOBIN / MEAN CORPUSCULAR HEMOGLOBIN CONCENTRATION / MEAN CORPUSCULAR VOLUME / MONOCYTE / NEUTROPHIL / PLATELET COUNT / ABSOLUTE BASOPHIL / BASOPHIL / NUCLEATED RED BLOOD CELLS: tissue Blood
[1] = 60 mg/kg, 120 h, dose level Low, time 5 day, vehicle 100 % WATER
[2] = 600 mg/kg, 72 h, dose level High, time 3 day, […]
[3] = 600 mg/kg, 72 h, dose level High, time 3 day, vehicle 100 % WATER
[4] = 600 mg/kg, 120 h, dose level High, time 5 day, […]
[5] = 600 mg/kg, 120 h, dose level High, time 5 day, vehicle 100 % WATER

With `ClC(Cl)Cl` [CHLOROFORM] the POTASSIUM [1] was 6.14 MEQ/L, the SODIUM [1] was 145.6 MEQ/L and the “TOTAL BILIRUBIN” value [1] was 0.1 mg/dL. The “TOTAL PROTEIN” value [1] was 6.3 G/DL, the “URIC ACID” value [1] was 1.5 mg/dL and the “ABSOLUTE EOSINOPHIL” value [2] was 29.6 CELLS/uL. The “ABSOLUTE LYMPHOCYTE” value [2] was 12329.2 CELLS/uL, the “ABSOLUTE MONOCYTE” value [2] was 476.6 CELLS/uL and the “ABSOLUTE SEGMENTED NEUTROPHIL” value [2] was 1764.6 CELLS/uL. The EOSINOPHIL [2] was 0.2%, the “ERYTHROCYTE COUNT” value [2] was 7.17 x10E6/uL and the HEMATOCRIT [2] was 43%. The HEMOGLOBIN [2] was 15.88 G/DL, the “LEUKOCYTE COUNT” value [2] was 14.6 x10E3/uL and the LYMPHOCYTE [2] was 84.4%. For the same molecule, the “MEAN CORPUSCULAR HEMOGLOBIN” value [2] was 22.2 pg, the “MEAN CORPUSCULAR HEMOGLOBIN CONCENTRATION” value [2] was 37 G/DL and the “MEAN CORPUSCULAR VOLUME” value [2] was 60.02 fL. For the same molecule, the MONOCYTE [2] was 3.2%, the NEUTROPHIL [2] was 12.2% and the “PLATELET COUNT” value [2] was 1301.6 x10E3/uL. For the same molecule, the “ABSOLUTE BASOPHIL” value [3] was 0 CELLS/uL, the “ABSOLUTE EOSINOPHIL” value [3] was 0 CELLS/uL and the “ABSOLUTE LYMPHOCYTE” value [3] was 7700 CELLS/uL. For the same molecule, the “ABSOLUTE MONOCYTE” value [3] was 77.67 CELLS/uL, the “ABSOLUTE SEGMENTED NEUTROPHIL” value [3] was 589 CELLS/uL and the BASOPHIL [3] was 0%. For the same molecule, the EOSINOPHIL [3] was 0%, the “ERYTHROCYTE COUNT” value [3] was 6.05 x10E6/uL and the HEMATOCRIT [3] was 38.4%. For the same molecule, the HEMOGLOBIN [3] was 14.97 G/DL, the “LEUKOCYTE COUNT” value [3] was 8.37 x10E3/uL and the LYMPHOCYTE [3] was 88%. The “MEAN CORPUSCULAR HEMOGLOBIN” value [3] was 24.73 pg, the “MEAN CORPUSCULAR HEMOGLOBIN CONCENTRATION” value [3] was 38.97 G/DL and the “MEAN CORPUSCULAR VOLUME” value [3] was 63.43 fL. For the same molecule, the MONOCYTE [3] was 1.33%, the NEUTROPHIL [3] was 10.67% and the “NUCLEATED RED BLOOD CELLS” value [3] was 0 /100WBC. The “PLATELET COUNT” value [3] was 1080.33 x10E3/uL, the “ALANINE AMINOTRANSFERASE” value [2] was 196 u/L and the ALBUMIN [2] was 4.36 G/DL. The “ALKALINE PHOSPHATASE” value [2] was 902 u/L, the “ASPARTATE AMINOTRANSFERASE” value [2] was 462.4 u/L and the “BLOOD UREA NITROGEN” value [2] was 20.8 mg/dL. For the same molecule, the “CARBON DIOXIDE” value [2] was 16.6 mmol/L, the CHLORIDE [2] was 107.4 MEQ/L and the CHOLESTEROL [2] was 77.6 mg/dL. The “CREATINE PHOSPHOKINASE” value [2] was 516 u/L, the CREATININE [2] was 0.44 mg/dL and the GLUCOSE [2] was 134.8 mg/dL. The “LACTATE DEHYDROGENASE” value [2] was 597.4 u/L, the LIPASE [2] was 10.6 u/L and the PHOSPHORUS [2] was 13.48 mg/dL. The POTASSIUM [2] was 5.66 MEQ/L, the SODIUM [2] was 144.48 MEQ/L and the “TOTAL BILIRUBIN” value [2] was 0.72 mg/dL. The “TOTAL PROTEIN” value [2] was 6.04 G/DL, the “URIC ACID” value [2] was 2.72 mg/dL and the “ALANINE AMINOTRANSFERASE” value [3] was 73.33 u/L. For the same molecule, the ALBUMIN [3] was 4.4 G/DL, the “ALKALINE PHOSPHATASE” value [3] was 416 u/L and the “ASPARTATE AMINOTRANSFERASE” value [3] was 103.67 u/L. For the same molecule, the “BLOOD UREA NITROGEN” value [3] was 14.67 mg/dL, the “CARBON DIOXIDE” value [3] was 34.33 mmol/L and the CHLORIDE [3] was 98.67 MEQ/L. The CHOLESTEROL [3] was 81.67 mg/dL, the “CREATINE PHOSPHOKINASE” value [3] was 203.67 u/L and the CREATININE [3] was 0.22 mg/dL. The GLUCOSE [3] was 153.67 mg/dL, the “LACTATE DEHYDROGENASE” value [3] was 179 u/L and the LIPASE [3] was 10.67 u/L. For the same molecule, the PHOSPHORUS [3] was 10 mg/dL, the POTASSIUM [3] was 5.43 MEQ/L and the SODIUM [3] was 144.7 MEQ/L. The “TOTAL BILIRUBIN” value [3] was 0.13 mg/dL, the “TOTAL PROTEIN” value [3] was 6.6 G/DL and the “URIC ACID” value [3] was 0.7 mg/dL. For the same molecule, the “ABSOLUTE LYMPHOCYTE” value [4] was 11359.33 CELLS/uL, the “ABSOLUTE MONOCYTE” value [4] was 227.33 CELLS/uL and the “ABSOLUTE SEGMENTED NEUTROPHIL” value [4] was 6880 CELLS/uL. For the same molecule, the “ERYTHROCYTE COUNT” value [4] was 7.17 x10E6/uL, the HEMATOCRIT [4] was 42.1% and the HEMOGLOBIN [4] was 15.6 G/DL. For the same molecule, the “LEUKOCYTE COUNT” value [4] was 18.47 x10E3/uL, the LYMPHOCYTE [4] was 73% and the “MEAN CORPUSCULAR HEMOGLOBIN” value [4] was 21.73 pg. The “MEAN CORPUSCULAR HEMOGLOBIN CONCENTRATION” value [4] was 37.07 G/DL, the “MEAN CORPUSCULAR VOLUME” value [4] was 58.7 fL and the MONOCYTE [4] was 2%. For the same molecule, the NEUTROPHIL [4] was 25%, the “PLATELET COUNT” value [4] was 1040.67 x10E3/uL and the “ABSOLUTE BASOPHIL” value [5] was 0 CELLS/uL. For the same molecule, the “ABSOLUTE EOSINOPHIL” value [5] was 0 CELLS/uL, the “ABSOLUTE LYMPHOCYTE” value [5] was 9175.5 CELLS/uL and the “ABSOLUTE MONOCYTE” value [5] was 105.5 CELLS/uL. The “ABSOLUTE SEGMENTED NEUTROPHIL” value [5] was 1269 CELLS/uL, the BASOPHIL [5] was 0% and the EOSINOPHIL [5] was 0%. For the same molecule, the “ERYTHROCYTE COUNT” value [5] was 6.48 x10E6/uL, the HEMATOCRIT [5] was 39.2% and the HEMOGLOBIN [5] was 15.15 G/DL. The “LEUKOCYTE COUNT” value [5] was 10.55 x10E3/uL, the LYMPHOCYTE [5] was 88% and the “MEAN CORPUSCULAR HEMOGLOBIN” value [5] was 23.4 pg. The “MEAN CORPUSCULAR HEMOGLOBIN CONCENTRATION” value [5] was 38.7 G/DL, the “MEAN CORPUSCULAR VOLUME” value [5] was 60.5 fL and the MONOCYTE [5] was 1%. For the same molecule, the NEUTROPHIL [5] was 11%, the “NUCLEATED RED BLOOD CELLS” value [5] was 0 /100WBC and the “PLATELET COUNT” value [5] was 959 x10E3/uL. For the same molecule, the “ALANINE AMINOTRANSFERASE” value [4] was 212 u/L, the ALBUMIN [4] was 4.1 G/DL and the “ALKALINE PHOSPHATASE” value [4] was 626 u/L. The “ASPARTATE AMINOTRANSFERASE” value [4] was 299.67 u/L, the “BLOOD UREA NITROGEN” value [4] was 49.67 mg/dL and the “CARBON DIOXIDE” value [4] was 19.67 mmol/L. The CHLORIDE [4] was 110.67 MEQ/L, the CHOLESTEROL [4] was 110.33 mg/dL and the “CREATINE PHOSPHOKINASE” value [4] was 744 u/L. The CREATININE [4] was 0.83 mg/dL, the GLUCOSE [4] was 119.33 mg/dL and the “LACTATE DEHYDROGENASE” value [4] was 376 u/L. The PHOSPHORUS [4] was 13.27 mg/dL, the POTASSIUM [4] was 9.12 MEQ/L and the SODIUM [4] was 144.83 MEQ/L. The “TOTAL BILIRUBIN” value [4] was 0.63 mg/dL, the “TOTAL PROTEIN” value [4] was 5.77 G/DL and the “URIC ACID” value [4] was 1.3 mg/dL. For the same molecule, the “ALANINE AMINOTRANSFERASE” value [5] was 46.5 u/L, the ALBUMIN [5] was 4.05 G/DL and the “ALKALINE PHOSPHATASE” value [5] was 305.5 u/L. For the same molecule, the “ASPARTATE AMINOTRANSFERASE” value [5] was 71 u/L, the “BLOOD UREA NITROGEN” value [5] was 15 mg/dL and the “CARBON DIOXIDE” value [5] was 29 mmol/L. The CHLORIDE [5] was 102.5 MEQ/L, the CHOLESTEROL [5] was 69 mg/dL and the “CREATINE PHOSPHOKINASE” value [5] was 475.5 u/L. For the same molecule, the CREATININE [5] was 0.21 mg/dL, the GLUCOSE [5] was 150.5 mg/dL and the “LACTATE DEHYDROGENASE” value [5] was 93 u/L. For the same molecule, the LIPASE [5] was 11 u/L, the PHOSPHORUS [5] was 11.45 mg/dL and the POTASSIUM [5] was 5.24 MEQ/L. The SODIUM [5] was 146.9 MEQ/L, the “TOTAL BILIRUBIN” value [5] was 0.1 mg/dL and the “TOTAL PROTEIN” value [5] was 6.05 G/DL. For the same molecule, the “URIC ACID” value [5] was 0.95 mg/dL.
